Values of other authors, collected in patent US20110256530A1, “PRODUCTS AND METHODS FOR TISSUE PRESERVATION” (GenVault Corporation, priority 2010, published 2011).

B1: RI: Large (~450 residues, ~49 kDa), acidic leucine-rich repeat protein that binds ribonucleases (protein, UniProt P13489 2-461, looked up)
Ribonuclease inhibitor: SLDIQSLDIQCEELSDARWAELLPLLQQCQVVRLDDCGLTEARCKDISSALRVNPALAELNLRSNELGDVGVHCVLQGLQTPSCKIQKLSLQNCCLTGAGCGVLSSTLRTLPTLQELHLSDNLLGDAGLQLLCEGLLDPQCRLEKLQLEYCSLSAASCEPLASVLRAKPDFKELTVSNNDINEAGVRVLCQGLKDSPCQLEALKLESCGVTSDNCRDLCGIVASKASLRELALGSNKLGDVGMAELCPGLLHPSSRLRTLWIWECGITAKGCGDLCRVLRAKESLKELSLAGNELGDEGARLLCETLLEPGCQLESLWVKSCSFTAACCSHFSSVLAQNRFLLELQISNNRLEDAGVRELCQGLGQPGSVLRVLWLADCDVSDSSCSSLAATLLANHSLRELDLSNNCLGDAGILQLVESVRQPGCLLEQLVLYDIYWSEEMEDRLQALEKDKPSLRVIS

Experiments:
[1] = charge state, pH 7, literature references (30)-(33)
[2] = test system: nucleases; settings: Table I, description in words
[3] = 25° C.
[4] = test system: ribonucleases

| Molecule | Useful Chemical Properties [1] | Activity [2] | further results |
| --- | --- | --- | --- |
| Cn1cncc1C[C@H](NC(=O)CCN)C(=O)O [Anserine, Anserine (Alanine-methyl-histidine)] | Cation at pH 7 (32) | – | – |
| O=C(O)CN(CCN(CC(=O)O)CC(=O)O)CC(=O)O [EDTA] | – | Divalent Chelator, Inhibitor | – |
| N[C@@H](Cc1c[nH]cn1)C(=O)O [Histidine] | Neutral zwitterions | – | – |
| OC[C@@H](O)[C@@H](O)[C@H](O)[C@H](O)CO [Mannitol] | Neutral (31) | – | – |
| C=O [formalin, methylene glycol] | – | – | permeation through tissue block [3]: about 1 mm of tissue block per hour |
| Aurinetricarboxylic Acid [Aurinetricarboxylic Acid (ATA)n] | – | derivative, broad spectrum | – |
| Uridine-Vanadate [Uridine-Vanadate U-V04] | – | RNase specific Inhibitor | – |
| B1 | – | – | complexes with certain ribonucleases [4]: extremely tight complexes |
